pIC50: −log10 of the molar value.
Biological target: T1, PIKfyve (Homo sapiens, UniProt Q9Y2I7)
T1 construct: purchased Nanosyn, Santa Clara, CA, USA (contract assay service)
Assay: biochemical PIKfyve mobility shift assay (Nanosyn)
Conditions: for pIC50: Tables 1-4 and text

T1 sequence (Q9Y2I7 whole entry): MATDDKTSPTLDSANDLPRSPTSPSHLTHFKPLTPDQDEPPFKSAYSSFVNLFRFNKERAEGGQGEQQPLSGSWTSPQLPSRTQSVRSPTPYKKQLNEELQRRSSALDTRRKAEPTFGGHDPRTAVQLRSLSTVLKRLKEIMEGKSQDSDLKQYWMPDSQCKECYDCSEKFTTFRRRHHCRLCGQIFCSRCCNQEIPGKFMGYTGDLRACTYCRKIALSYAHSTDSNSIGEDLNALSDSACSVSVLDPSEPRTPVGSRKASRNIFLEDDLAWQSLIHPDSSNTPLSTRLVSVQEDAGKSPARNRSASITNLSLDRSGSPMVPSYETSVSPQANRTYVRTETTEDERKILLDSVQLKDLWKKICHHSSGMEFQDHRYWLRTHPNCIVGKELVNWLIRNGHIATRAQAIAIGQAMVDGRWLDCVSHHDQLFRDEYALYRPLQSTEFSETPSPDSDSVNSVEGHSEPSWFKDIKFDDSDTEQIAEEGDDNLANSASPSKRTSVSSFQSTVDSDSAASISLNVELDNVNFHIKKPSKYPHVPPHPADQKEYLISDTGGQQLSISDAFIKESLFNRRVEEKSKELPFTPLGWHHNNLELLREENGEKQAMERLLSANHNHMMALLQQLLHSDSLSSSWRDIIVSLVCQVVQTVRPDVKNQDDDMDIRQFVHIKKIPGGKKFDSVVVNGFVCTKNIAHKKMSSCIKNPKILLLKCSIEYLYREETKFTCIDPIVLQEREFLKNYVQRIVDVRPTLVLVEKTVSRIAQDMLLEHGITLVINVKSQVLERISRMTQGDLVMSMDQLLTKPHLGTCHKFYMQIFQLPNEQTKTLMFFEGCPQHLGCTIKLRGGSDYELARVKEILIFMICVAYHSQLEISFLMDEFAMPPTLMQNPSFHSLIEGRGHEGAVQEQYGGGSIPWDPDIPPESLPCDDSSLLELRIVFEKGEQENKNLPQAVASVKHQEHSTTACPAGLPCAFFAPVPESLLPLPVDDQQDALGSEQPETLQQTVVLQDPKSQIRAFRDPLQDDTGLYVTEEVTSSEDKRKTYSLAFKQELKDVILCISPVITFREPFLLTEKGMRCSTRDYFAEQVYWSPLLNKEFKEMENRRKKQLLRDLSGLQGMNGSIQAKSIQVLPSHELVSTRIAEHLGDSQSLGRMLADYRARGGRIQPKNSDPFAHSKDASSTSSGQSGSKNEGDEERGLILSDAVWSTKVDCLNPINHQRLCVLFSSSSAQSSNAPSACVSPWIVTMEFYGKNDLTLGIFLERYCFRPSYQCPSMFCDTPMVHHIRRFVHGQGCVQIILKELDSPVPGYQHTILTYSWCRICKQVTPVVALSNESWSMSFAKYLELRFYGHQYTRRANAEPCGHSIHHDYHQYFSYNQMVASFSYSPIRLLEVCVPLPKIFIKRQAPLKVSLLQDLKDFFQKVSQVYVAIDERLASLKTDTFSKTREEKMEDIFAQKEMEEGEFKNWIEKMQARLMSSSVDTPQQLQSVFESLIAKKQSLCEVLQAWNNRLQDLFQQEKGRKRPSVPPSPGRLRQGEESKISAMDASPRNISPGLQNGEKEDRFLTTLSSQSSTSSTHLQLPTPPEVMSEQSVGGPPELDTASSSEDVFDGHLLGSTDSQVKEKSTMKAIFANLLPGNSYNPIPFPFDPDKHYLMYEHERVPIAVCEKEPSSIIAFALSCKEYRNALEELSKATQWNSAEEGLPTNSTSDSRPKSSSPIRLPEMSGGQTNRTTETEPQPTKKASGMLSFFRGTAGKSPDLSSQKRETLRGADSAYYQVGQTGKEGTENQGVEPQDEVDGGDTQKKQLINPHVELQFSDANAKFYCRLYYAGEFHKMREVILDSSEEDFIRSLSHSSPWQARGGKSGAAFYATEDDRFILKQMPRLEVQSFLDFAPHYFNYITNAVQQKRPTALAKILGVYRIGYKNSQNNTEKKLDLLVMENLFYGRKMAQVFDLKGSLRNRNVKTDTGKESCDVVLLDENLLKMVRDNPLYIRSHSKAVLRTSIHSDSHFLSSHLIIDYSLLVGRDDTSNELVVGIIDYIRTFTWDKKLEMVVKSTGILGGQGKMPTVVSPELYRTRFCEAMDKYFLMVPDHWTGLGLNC

| Compound | pIC50 | also measured |
| --- | --- | --- |
| COc1ccc(C#Cc2snc3cc(-c4ccc(OC)c(OC)c4)cnc23)cn1 [Compound 7h, 6-(3,4-Dimethoxyphenyl)-3-((6-methoxypyridin-3-yl)ethynyl)isothiazolo[4,3-b]pyridine] | 6.23 |  |
| COc1ccc(-c2cnc3c(C#CCNC(=O)Nc4ccccc4)snc3c2)cc1OC [Compound 11c, 1-(3-(6-(3,4-Dimethoxyphenyl)isothiazolo[4,3-b]pyridin-3-yl)prop-2-yn-1-yl)-3-phenylurea] | < 5.00 |  |
| CN(C)C(=O)c1cccc(-c2cnc3c(C#Cc4cccnc4)snc3c2)c1 [Compound 3q, N,N-Dimethyl-3-(3-(pyridin-3-ylethynyl)isothiazolo[4,3-b]pyridin-6-yl)benzamide] | 7.74 |  |
| COc1ccc(C#Cc2snc3cc(-c4ccc(OC)c(OC)c4)cnc23)c(OC)n1 [Compound 7u, 6-(3,4-Dimethoxyphenyl)-3-((2,6-dimethoxypyridin-3-yl)ethynyl)isothiazolo[4,3-b]pyridine] | 5.25 |  |
| COc1ccc(-c2cnc3c(C#CCNC(=O)c4ccccc4)snc3c2)cc1OC [Compound 11a, N-(3-(6-(3,4-Dimethoxyphenyl)isothiazolo[4,3-b]pyridin-3-yl)prop-2-yn-1-yl)benzamide] | 5.69 |  |
| Cc1ccccc1-c1cnc2c(C#Cc3cccnc3)snc2c1 [Compound 3c, 3-(Pyridin-3-ylethynyl)-6-(2-tolyl)isothiazolo[4,3-b]pyridine] | 8.09 | IC50 (values given in text in nM): 8 nM |
| COc1ccc(-c2cnc3c(NC(=O)c4cccnc4)snc3c2)cc1OC [Compound 20, N-(6-(3,4-Dimethoxyphenyl)isothiazolo[4,3-b]pyridin-3-yl)nicotinamide] | 5.37 | PIKfyve inhibition in words: practically inactive |
| COc1ccc(-c2cnc3c(C#CCNS(=O)(=O)c4ccccc4)snc3c2)cc1OC [Compound 11b, N-(3-(6-(3,4-Dimethoxyphenyl)isothiazolo[4,3-b]pyridin-3-yl)prop-2-yn-1-yl)benzenesulfonamide] | 5.74 |  |
| COc1ccc(-c2cnc3c(/C=C(\SCCO)c4cccnc4)snc3c2)cc1OC [Compound 23d, (Z)-2-((2-(6-(3,4-Dimethoxyphenyl)isothiazolo[4,3-b]pyridin-3-yl)-1-(pyridin-3-yl)vinyl)thio)ethan-1-ol] | 5.81 |  |
| COc1ccc(-c2cnc3c(C#Cc4ccc(C(F)(F)F)nc4)snc3c2)cc1OC [Compound 7n, 6-(3,4-Dimethoxyphenyl)-3-((6-(trifluoromethyl)pyridin-3-yl)ethynyl)isothiazolo[4,3-b]pyridine] | 6.17 |  |
| COc1ccc(-c2cnc3c(-c4cccnc4)snc3c2)cc1OC [Compound 17, 6-(3,4-Dimethoxyphenyl)-3-(pyridin-3-yl)isothiazolo[4,3-b]pyridine] | 6.22 |  |
| COc1ccc(-c2cnc3c(C#Cc4ccncc4)snc3c2)cc1OC [Compound 7x, 6-(3,4-Dimethoxyphenyl)-3-(pyridin-4-ylethynyl)isothiazolo[4,3-b]pyridine] | 7.12 |  |
| C(#Cc1snc2cccnc12)c1cccnc1 [Compound 2a, 3-(Pyridin-3-ylethynyl)isothiazolo[4,3-b]pyridine] | 5.94 |  |
| COc1ccc(-c2cnc3c(C#Cc4ccccn4)snc3c2)cc1OC [Compound 7y, 6-(3,4-Dimethoxyphenyl)-3-(pyridin-2-ylethynyl)isothiazolo[4,3-b]pyridine] | 7.52 |  |
| COc1ccc(-c2cnc3c(C#Cc4ccc(F)cc4)snc3c2)cc1OC [Compound 7c, 6-(3,4-Dimethoxyphenyl)-3-((4-fluorophenyl)ethynyl)isothiazolo[4,3-b]pyridine] | 6.60 |  |
| CO/C(=C\c1snc2cc(-c3ccc(OC)c(OC)c3)cnc12)c1cccnc1 [Compound 23a, (Z)-6-(3,4-Dimethoxyphenyl)-3-(2-methoxy-2-(pyridin-3-yl)vinyl)isothiazolo[4,3-b]pyridine] | 6.28 |  |
| COc1ccc(-c2cnc3c(C#Cc4cc(F)cnc4OC)snc3c2)cc1OC [Compound 7t, 6-(3,4-Dimethoxyphenyl)-3-((5-fluoro-2-methoxypyridin-3-yl)ethynyl)isothiazolo[4,3-b]pyridine] | < 5.00 |  |
| O=C(c1cccc(-c2cnc3c(C#Cc4cccnc4)snc3c2)c1)N1CCCC1 [Compound 3r, (3-(3-(Pyridin-3-ylethynyl)isothiazolo[4,3-b]pyridin-6-yl)phenyl)(pyrrolidin-1-yl)methanone] | 8.21 |  |
| CCOc1ncccc1C#Cc1snc2cc(-c3ccc(OC)c(OC)c3)cnc12 [Compound 7s, 6-(3,4-Dimethoxyphenyl)-3-((2-ethoxypyridin-3-yl)ethynyl)isothiazolo[4,3-b]pyridine] | 6.96 |  |
| COc1ccc(-c2cnc3c(C#Cc4ccc(C)nc4)snc3c2)cc1OC [Compound 7g, 6-(3,4-Dimethoxyphenyl)-3-((6-methylpyridin-3-yl)ethynyl)isothiazolo[4,3-b]pyridine] | 6.44 |  |
| CCCC#Cc1snc2cc(-c3ccc(OC)c(OC)c3)cnc12 [Compound 7a, 6-(3,4-Dimethoxyphenyl)-3-(pent-1-yn-1-yl)isothiazolo[4,3-b]pyridine] | 6.07 | fold less potent on PIKfyve relative to RMC-113 (ratio of IC50 values): 100 fold |
| COc1ccc(-c2cnc3c(C#Cc4cccc(Cl)c4)snc3c2)cc1OC [Compound 7d, 6-(3,4-Dimethoxyphenyl)-3-((3-chlorophenyl)ethynyl)isothiazolo[4,3-b]pyridine] | 7.41 |  |
| COc1ccc(-c2cnc3c(/C=C(/c4cccnc4)N4CCOCC4)snc3c2)cc1OC [Compound 23c, (Z)-4-(2-(6-(3,4-Dimethoxyphenyl)isothiazolo[4,3-b]pyridin-3-yl)-1-(pyridin-3-yl)vinyl)morpholine] | 6.21 |  |
| CCNC(=O)c1ccc(-c2cnc3c(C#Cc4cccnc4)snc3c2)cc1 [Compound 3n, N-Ethyl-4-(3-(pyridin-3-ylethynyl)isothiazolo[4,3-b]pyridin-6-yl)benzamide] | 8.46 |  |
| COc1ccc(-c2cnc3c(NCc4cccnc4)snc3c2)cc1OC [Compound 15, 6-(3,4-Dimethoxyphenyl)-N-(pyridin-3-ylmethyl)isothiazolo[4,3-b]pyridin-3-amine] | < 5.00 | PIKfyve inhibition in words: practically inactive |
| CN(C)c1ccc(-c2cnc3c(C#Cc4cccnc4)snc3c2)cc1 [Compound 3d, N,N-Dimethyl-4-(3-(pyridin-3-ylethynyl)isothiazolo[4,3-b]pyridin-6-yl)aniline] | 8.66 |  |
| COc1ccc(-c2cnc3c(CCc4cccnc4)snc3c2)cc1OC [Compound 22, 6-(3,4-Dimethoxyphenyl)-3-(2-(pyridin-3-yl)ethyl)isothiazolo[4,3-b]pyridine] | 7.48 |  |
| CC(C)Oc1ccc(-c2cnc3c(C#Cc4cccnc4)snc3c2)cc1 [Compound 3e, 6-(4-Isopropoxyphenyl)-3-(pyridin-3-ylethynyl)isothiazolo[4,3-b]pyridine] | 7.70 |  |
| COc1ccc(-c2cnc3c(C#Cc4cc(C)cnc4F)snc3c2)cc1OC [Compound 7v, 6-(3,4-Dimethoxyphenyl)-3-((2-fluoro-5-methylpyridin-3-yl)ethynyl)isothiazolo[4,3-b]pyridine] | 7.38 |  |
| CN(C)C(=O)c1ccc(-c2cnc3c(C#Cc4cccnc4)snc3c2)cc1 [Compound 3o, N,N-Dimethyl-4-(3-(pyridin-3-ylethynyl)isothiazolo[4,3-b]pyridin-6-yl)benzamide] | 7.60 |  |
